Assay results as given in patent US20240075041A1, “TREATMENT OF EOSINOPHILIC DISORDERS WITH AVAPRITINIB” (Blueprint Medicines Corporation, priority 2019, published 2024).
“Also recorded” adds a separate entry of the source.

Tests used:
[1] = test system: tyrosine kinase inhibitor (TKI)-resistant mastocytoma model; experiment: TKI-resistant mastocytoma model in vivo
[2] = molecular target: KIT D816V (Homo sapiens, UniProt P10721, D816V); experiment: Activity against KIT D816V in vitro; format: biochemical
[3] = test system: eosinophils; experiment: Measurement of absolute eosinophils in Phase 1 clinical trial patients (routine blood test at C1D15); format: in vivo, human; conditions: adult patients with AdvSM, oral Compound (I) 30 mg to 400 mg QD, C1D15 (after 2 weeks), baseline absolute eosinophil count >0.5, FIGS. 1-4
Procedure: The dose range of Compound (I) is between 30 mg and 400 mg. The patients with baseline absolute eosinophil count of >0.5.
The patients with baseline absolute eosinophil count of >0.5.
The dose range of Compound (I) is between 200 mg and 300 mg. The patients with baseline absolute eosinophil count of >0.5.
(§1) This is a Phase 1, open-label, study designed to evaluate the safety, tolerability, PK, PD, and preliminary antineoplastic activity of Compound (I), administered orally, in adult patients with advanced systemic mastocytosis (AdvSM) and relapsed or refractory myeloid malignancies.
(§2) The study consists of 2 parts: dose-escalation (Part 1) and expansion (Part 2). Approximately 25 patients were in Part 1 and approximately 55 patients were in Part 2.
A treatment cycle is 28 days in duration. Patients presented to the study center on C1D1 for the first dose of study drug and serial PK sampling, PD sample collection, vital sign measurement, electrocardiogram (ECG) monitoring, patient general impression of symptom severity (PGIS) and European Organization for Research and Treatment of Cancer Core Quality of Life Questionnaire (EORTC QLQ-C30), safety monitoring and adverse event (AE) recording.
Eosinophils in patients were measured at C1D15 (cycle 1, day 15) via a routine blood test, see, e.g., LaGow B et al., eds. PDR Lab Advisor. A Comprehensive Point-of-Care Guide for Over 600 Lab Tests. 1st ed. […]

[4] = Toxicology and safety pharmacology studies; format: in vivo; conditions: at active doses
[5] = Phase 1 dose escalation in advanced systemic mastocytosis (NCT02561988); format: in vivo; conditions: patients with advanced systemic mastocytosis, Phase 1 study, oral
Source text: as §1, §2
Patients with AdvSM or a relapsed or refractory myeloid malignancy were enrolled in the dose escalation part of the study. A 3+3 dose-escalation design using cohorts of 3 patients were employed.
The first cohort of patients received Compound (I) at a starting dose of 30 mg once daily (QD). Dose escalation proceeded at increments up to 100% until ≥1 patient treated at a given dose level has a ≥Grade 2 non-hematologic AE or a Grade 4 hematologic AE and the AE (non-hematologic or hematologic) was not clearly attributable to a cause other than Compound (I) or the dose exceeds the highest dose determined to be safe in the ongoing Compound (I) first-in-human (FIH) study in GIST, BLU-285-1101.
Three patients were enrolled initially in each cohort and an additional 3 patients (for a total of 6) were enrolled when the cohort requires expansion due to dose-limiting toxicity (DLT). […]

Sequence of KIT D816V (P10721 26-976 D816V): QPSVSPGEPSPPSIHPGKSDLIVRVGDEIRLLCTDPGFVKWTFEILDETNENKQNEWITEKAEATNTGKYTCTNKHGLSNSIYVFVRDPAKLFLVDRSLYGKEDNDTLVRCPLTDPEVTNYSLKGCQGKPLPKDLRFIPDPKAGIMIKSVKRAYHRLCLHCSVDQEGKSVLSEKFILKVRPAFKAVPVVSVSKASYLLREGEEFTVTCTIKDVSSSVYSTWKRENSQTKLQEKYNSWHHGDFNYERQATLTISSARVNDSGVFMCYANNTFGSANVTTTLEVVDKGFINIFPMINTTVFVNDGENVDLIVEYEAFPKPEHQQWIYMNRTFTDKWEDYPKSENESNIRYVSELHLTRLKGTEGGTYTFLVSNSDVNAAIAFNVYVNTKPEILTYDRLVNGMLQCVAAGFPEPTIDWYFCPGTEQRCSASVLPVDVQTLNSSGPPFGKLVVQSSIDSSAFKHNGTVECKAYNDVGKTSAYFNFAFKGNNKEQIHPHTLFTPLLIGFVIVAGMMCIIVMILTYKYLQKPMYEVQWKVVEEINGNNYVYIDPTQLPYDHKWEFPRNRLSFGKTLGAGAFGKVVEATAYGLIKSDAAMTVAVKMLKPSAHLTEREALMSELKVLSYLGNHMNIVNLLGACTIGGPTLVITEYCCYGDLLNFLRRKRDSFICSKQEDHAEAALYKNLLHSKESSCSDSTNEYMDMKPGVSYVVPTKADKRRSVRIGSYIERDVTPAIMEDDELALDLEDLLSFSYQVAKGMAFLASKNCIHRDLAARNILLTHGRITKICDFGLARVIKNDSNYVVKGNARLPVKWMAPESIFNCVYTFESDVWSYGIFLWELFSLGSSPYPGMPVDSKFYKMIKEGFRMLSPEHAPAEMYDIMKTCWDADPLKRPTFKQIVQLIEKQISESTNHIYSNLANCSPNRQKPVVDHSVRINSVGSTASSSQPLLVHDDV

Cn1cc(-c2cc3c(N4CCN(c5ncc([C@@](C)(N)c6ccc(F)cc6)cn5)CC4)ncnn3c2)cn1 [Compound (I), (S)-1-(4-fluorophenyl)-1-(2-(4-(6-(1-methyl-1H-pyrazol-4-yl)pyrrolo[2,1-f][1,2,4]triazin-4-yl)piperazin-yl)pyrimidin-5-yl)ethan-1-amine]
growth inhibition in TKI-resistant mastocytoma model [1]: robust growth inhibition
activity against KIT D816V in vitro [2]: potent and selective activity
absolute eosinophil changes from baseline levels [3]: significantly decreases number of absolute eosinophils; also recorded: effectively reduces eosinophil levels
tolerability [4]: tolerability at active doses
recommended Phase 2 dose (RP2D) [5]: 300 mg once a day (QD)
